From patent US7550463B2, “Carbamoylpyridone derivatives having inhibitory activity against HIV integrase” (Shionogi & Co., Ltd., priority 2004, dated 2009)

What was measured:
HIV integrase = HIV integrase (Human immunodeficiency virus type 1 group M subtype B, UniProt P04585); assay: HIV integrase inhibitory activity assay (immunoplate, substrate DNA / target DNA, OD 405 nm); type: biochemical; conditions: read-out: Integrase inhibitory activity (IC50, ng/ml) (converted)
Experimental: The HIV integrase inhibitory activity was examined based on an assay method shown below.
(1) Preparation of DNA Solution
According to the same method as the method described in Test Example 1 of WO 2004/024693, a substrate DNA solution (2 pmol/μl) and a target DNA solution (5 pmol/μl) were prepared. […] Each sequence of a substrate DNA and a target DNA is as described in the same Test Example.
(2) Measurement of Inhibition Rate (IC50 Value)
Streptavidin (manufactured by Vector Laboratories) was dissolved in a 0. 1M carbonate buffer (composition: 90 mM Na2CO3, 10 mM NaHCO3 )to a concentration of 40 μg/ml. Each 50 μl of this solution was added to a well of an immunoplate (manufactured by NUNC), and this was allowed to stand at 4° C. overnight to perform adsorption. Then, each well was washed with, a phosphate buffer (composition: 13.7 mM NaCl, 0.27 mM KCl, 0.43 mM. Na2HPO4, 0.14 mM KH2PO4) two times, 300 μl of a phosphate buffer containing 1% skim milk was added, and blocking was performed for 30 minutes. […]
Each plate was incubated at 30° C. for 10 minutes, and the reaction solution was discarded, followed by washing with a phosphate buffer two times. […] Inhibition rate (%)=100[1−{(C abs.−NC abs.)/(PC abs.−NC abs.)}] • C abs.; absorbance of well of compound • NC abs.: absorbance of NC • PC abs.: absorbance of PC

melting point [°C] | Structure (SMILES) | IC50 (HIV integrase) [nM]
279 to 280 | O=C(NCc1ccc(F)cc1)c1[nH]cc(C(=O)NCc2ccc(F)cc2)c(=O)c1O | 
 | O=C(O)c1[nH]cc(C(=O)NCc2ccc(F)cc2)c(=O)c1O [Compound A-3] | 10.1
 | COC(=O)c1[nH]cc(C(=O)NCc2ccc(F)cc2)c(=O)c1O [Compound A-1a, Methyl 5-(4-fluorobenzylcarbamoyl)-3-hydroxy-4-oxo-1,4-dihydropyridine-2-carboxylate] | 20
